Source: US11548868B2, “Heterocyclic compounds, compositions comprising heterocyclic compound, and methods of use thereof” (JS INNOPHARM (SHANGHAI) LTD, priority 2017, dated 2023)

biological target: T1, TDO2 in A172 cancer cells (Homo sapiens, UniProt P48775); experiment: TDO2 Cellular Assay (kynurenine production in A172 cancer cells); format: cell-based; settings: L-Trp 1 mM, 24 hours incubation, kynurenine at 490 nm
T1 construct: endogenous in cells; host or cells: A172 cancer cells
Experimental: A172 cancer cells (3×10^4 per well) in 85 μL DMEM medium containing 10% FBS were seeded in a 96-well plate and incubated at 95% humidity and 5% CO2 at 37° C. for overnight. On the next day, L-Trp solution (10 μL, 1 mM final concentration) and serial dilutions of the test compounds and DMEM medium resulting in a total final volume of 100 μL each well. The test compounds were dissolved in DMSO and successively diluted with pH7.5 butter (with final DMSO concentration of 0.25%) resulting in final concentrations of the test compounds ranging from 0 to 25 μM (0, 2.5, 7.5, 25, 75, 250, 750, 2500, 7500, & 25000 nM). After 24 hours of incubation, 70 uL of the supernatant per well was transferred to a new 96 well plate. 8 μL of trichloroacetic acid (6.1 N) was mixed into each well and incubated at 50° C. for 30 min to hydrolyze N-formylkynurenine to kynurenine. The reaction mixture was then centrifuged for 10 min at 2500 RPM to remove sediments. 50 μL of the supernatant per well was transferred to another 96 well plate and mixed with 50 μL of 2% (w/v) p-dimethylaminobenzaldehyde in acetic acid. The yellow color derived from kynurenine was measured at 490 nm using a microplate reader. Percent inhibition of the test compounds was determined by measuring the decrease in kynurenine as compared to the control of DMSO vehicle, which was calculated by formula of (WC−WT)/WC, where WC is the mean absorbance of the control well minus blank well; WT is the mean absorbance of the test well minus the blank well. Data was analyzed by GraphPad Prism 5 and the IC50 values were obtained by non-linear regression.
The IC50 values of for Compounds disclosed are listed in Table 2, A′: ≤0.5 μM; B′: >0.5 μM and ≤1 μM; C′: >1.0 μM and ≤5 uM; and D′: >5 μM.

T1 sequence (P48775 whole entry): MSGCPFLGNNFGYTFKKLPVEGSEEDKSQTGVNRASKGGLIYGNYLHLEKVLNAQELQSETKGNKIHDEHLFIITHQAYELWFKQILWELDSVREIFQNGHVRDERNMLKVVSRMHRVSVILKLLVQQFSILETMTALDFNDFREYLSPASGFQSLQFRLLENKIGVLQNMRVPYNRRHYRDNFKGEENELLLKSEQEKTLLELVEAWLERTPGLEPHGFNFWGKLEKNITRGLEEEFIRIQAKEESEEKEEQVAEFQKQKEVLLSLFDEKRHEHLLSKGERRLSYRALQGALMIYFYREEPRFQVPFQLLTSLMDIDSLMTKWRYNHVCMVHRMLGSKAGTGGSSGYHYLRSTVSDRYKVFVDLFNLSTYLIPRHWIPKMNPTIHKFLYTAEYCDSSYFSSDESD

IC50 [nM] | SMILES
≤ 500 | O=C([C@H]1CC[C@H](O)CC1)N1C[C@@H]2C[C@@](O)(c3cc(Cl)cc4[nH]ncc34)C[C@@H]2C1 [Example 66, ((3aR,5R,6aS)-5-(6-chloro-1H-indazol-4-yl)-5-hydroxyhexahydrocyclopenta[c]pyrrol-2(1H)-yl)((1r,4R)-4-hydroxycyclohexyl)methanone]
≤ 500 | COC(=O)N1C[C@@H]2C[C@@](O)(c3cc(Cl)cc4[nH]ncc34)C[C@@H]2C1 [Example 67, (3aR,5r,6aS)-methyl 5-(6-chloro-1H-indazol-4-yl)-5-hydroxyhexahydrocyclopenta[c]pyrrole-2(1H)-carboxylate]
≤ 500 | O=C(C1CCOC1)N1C[C@@H]2C[C@@](O)(c3cc(Cl)cc4[nH]ncc34)C[C@@H]2C1 (stereo partly drawn) [Example 68, ((3aR,5r,6aS)-5-(6-chloro-1H-indazol-4-yl)-5-hydroxyhexahydrocyclopenta[c]pyrrol-2(1H)-yl)(tetrahydrofuran-3-yl)methanone]
≤ 500 | O=C(CC1CC1)N1C[C@@H]2C[C@@](O)(c3cc(Cl)cc4[nH]ncc34)C[C@@H]2C1 [Example 69, 1-((3aR,5r,6aS)-5-(6-chloro-1H-indazol-4-yl)-5-hydroxyhexahydrocyclopenta[c]pyrrol-2(1H)-yl)-2-cyclopropylethanone]
≤ 500 | CCC(=O)N1C[C@@H]2C[C@@](O)(c3cc(Cl)cc4[nH]ncc34)C[C@@H]2C1 [Example 70, 1-((3aR,5r,6aS)-5-(6-chloro-1H-indazol-4-yl)-5-hydroxyhexahydrocyclopenta[c]pyrrol-2(1H)-yl)propan-1-one]
≤ 500 | CCS(=O)(=O)N[C@H]1[C@@H]2C[C@@](O)(c3cc(Cl)cc4[nH]ncc34)C[C@@H]21 [Example 71, N-((1R,3r,5S,6r)-3-(6-chloro-1H-indazol-4-yl)-3-hydroxybicyclo[3.1.0]hexan-6-yl)ethanesulfonamide]
≤ 500 | O=C(N[C@H]1[C@@H]2C[C@@](O)(c3cc(Cl)cc4[nH]ncc34)C[C@@H]21)C1CCOC1 (stereo partly drawn) [Example 72, N-((1R,3r,5S,6r)-3-(6-chloro-1H-indazol-4-yl)-3-hydroxybicyclo[3.1.0]hexan-6-yl)tetrahydrofuran-3-carboxamide]
≤ 500 | O=S(=O)(N[C@H]1[C@@H]2C[C@@](O)(c3cc(Cl)cc4[nH]ncc34)C[C@@H]21)C1CC1 [Example 73, N-((1R,3r,5S,6r)-3-(6-chloro-1H-indazol-4-yl)-3-hydroxybicyclo[3.1.0]hexan-6-yl)cyclopropanesulfonamide]
≤ 500 | O=S(=O)(N[C@H]1[C@@H]2C[C@@](O)(c3cc(Cl)cc4[nH]ncc34)C[C@@H]21)C1CCCC1 [Example 74, N-((1R,3r,5S,6r)-3-(6-chloro-1H-indazol-4-yl)-3-hydroxybicyclo[3.1.0]hexan-6-yl)cyclopentanesulfonamide]

Continued, compound first:

SMILES | IC50 [nM]
CC1(C)C2CN(c3cc(Cl)cc4[nH]ncc34)CC2CN1S(C)(=O)=O (racemic) [Example 1, 6-chloro-4-(4,4-dimethyl-5-(methylsulfonyl)hexahydropyrrolo[3,4-c]pyrrol-2(1H)-yl)-1H-indazole] | ≤ 500
CS(=O)(=O)N1C[C@@H]2CC(c3cc(Cl)cc4[nH]ncc34)=C[C@@H]2C1 (racemic) [Example 5, Racemic-6-chloro-4-((3aR,6aS)-2-(methylsulfonyl)-1,2,3,3a,4,6a-hexahydrocyclopenta[c]pyrrol-5-yl)-1H-indazole] | ≤ 500
CC1(C)[C@H]2CN(c3cc(Cl)cc4[nH]ncc34)C[C@H]2CN1C(N)=O (racemic) [Example 31, Racemic-(3aS,6aR)-5-(6-chloro-1H-indazol-4-yl)-1,1-dimethylhexahydropyrrolo[3,4-c]pyrrole-2(1H)-carboxamide] | ≤ 500
CC1(C)[C@H]2CN(c3cc(Cl)cn4cncc34)C[C@H]2CN1S(C)(=O)=O (racemic) [Example 49, Racemic-6-chloro-8-((3aR,6aS)-4,4-dimethyl-5-(methylsulfonyl)hexahydropyrrolo[3,4-c]pyrrol-2(1H)-yl)imidazo[1,5-a]pyridine] | 1000 to 5000
CC1(C)[C@H]2CN(c3c(C(F)(F)F)ccn4cncc34)C[C@H]2CN1S(C)(=O)=O (racemic) [Example 57, Racemic-8-((3aR,6aS)-4,4-dimethyl-5-(methylsulfonyl)hexahydropyrrolo[3,4-c]pyrrol-2(1H)-yl)-7-(trifluoromethyl)imidazo[1,5-a]pyridine] | > 5000
CC(=O)N1C[C@@H]2CN(c3c(C(F)(F)F)ccn4cncc34)C[C@@H]2C1(C)C (racemic) [Example 58, Racemic-1-((3aS,6aR)-1,1-dimethyl-5-(7-(trifluoromethyl)imidazo[1,5-a]pyridin-8-yl)hexahydropyrrolo[3,4-c]pyrrol-2(1H)-yl)ethanone] | > 5000
CC(=O)N1C[C@H]2C[C@@H](c3cc(C(F)(F)F)cn4cncc34)C[C@H]2C1 [Example 4, 1-((3aR,5r,6aS)-5-(6-(trifluoromethyl)imidazo[1,5-a]pyridin-8-yl)hexahydrocyclopenta[c]pyrrol-2(1H)-yl)ethanone] | > 5000
CC1(C)C2CN(c3cc(Cl)cc4[nH]ncc34)CC2CN1S(=O)(=O)c1ccc(C#N)cc1 (stereo not shown) [Example 26, 4-(5-(6-chloro-1H-indazol-4-yl)-1,1-dimethylhexahydropyrrolo[3,4-c]pyrrol-2(1H)-ylsulfonyl)benzonitrile] | 1000 to 5000
CC1(C)C2CN(c3cc(Cl)cc4[nH]ncc34)CC2CN1C(=O)C1CC1 (stereo not shown) [Example 29, (5-(6-chloro-1H-indazol-4-yl)-1,1-dimethylhexahydropyrrolo[3,4-c]pyrrol-2(1H)-yl)(cyclopropyl)methanone] | 500 to 1000
O[C@@]1(c2cc(Cl)cc3[nH]ncc23)C[C@H]2CCC[C@H]2C1 [Example 30, (2r,3aR,6aS)-2-(6-chloro-1H-indazol-4-yl)octahydropentalen-2-ol] | ≤ 500
N#Cc1ccc(S(=O)(=O)N2C[C@H]3CN(c4cc(Cl)cc5[nH]ncc45)C[C@H]3C2)cc1 [Example 33, 4-(((3aR,6aS)-5-(6-chloro-1H-indazol-4-yl)hexahydropyrrolo[3,4-c]pyrrol-2(1H)-yl)sulfonyl)benzonitrile] | > 5000
N#Cc1ccc(C(=O)N2C[C@@H]3CN(c4cc(Cl)cc5[nH]ncc45)C[C@@H]3C2)cc1 [Example 34, 4-((3aR,6aS)-5-(6-chloro-1H-indazol-4-yl)octahydropyrrolo[3,4-c]pyrrole-2-carbonyl)benzonitrile] | > 5000
O=S(=O)(C1CC1)N1C[C@@H]2C[C@@](O)(c3cc(Cl)cc4[nH]ncc34)C[C@@H]2C1 [Example 37, (3aR,5r,6aS)-5-(6-chloro-1H-indazol-4-yl)-2-(cyclopropylsulfonyl)octahydrocyclopenta[c]pyrrol-5-ol] | ≤ 500
CC(C)(C)OC(=O)N1C[C@@H]2C[C@@](O)(c3cc(Cl)cc4[nH]ncc34)C[C@@H]2C1 [Example 54, (3aR,5r,6aS)-tert-butyl 5-(6-chloro-1H-indazol-4-yl)-5-hydroxyhexahydrocyclopenta[c]pyrrole-2(1H)-carboxylate] | ≤ 500
O=C(C1CCCC1)N1C[C@@H]2C[C@@](O)(c3cc(Cl)cc4[nH]ncc34)C[C@@H]2C1 [Example 59, ((3aR,5r,6aS)-5-(6-chloro-1H-indazol-4-yl)-5-hydroxyhexahydrocyclopenta[c]pyrrol-2(1H)-yl)(cyclopentyl)methanone] | ≤ 500
O=C(C1CCC1)N1C[C@@H]2C[C@@](O)(c3cc(Cl)cc4[nH]ncc34)C[C@@H]2C1 [Example 60, ((3aR,5r,6aS)-5-(6-chloro-1H-indazol-4-yl)-5-hydroxyhexahydrocyclopenta[c]pyrrol-2(1H)-yl)(cyclobutyl)methanone] | ≤ 500
CC(C)OC(=O)N1C[C@@H]2C[C@@](O)(c3cc(Cl)cc4[nH]ncc34)C[C@@H]2C1 [Example 61, (3aR,5r,6aS)-isopropyl 5-(6-chloro-1H-indazol-4-yl)-5-hydroxyhexahydrocyclopenta[c]pyrrole-2(1H)-carboxylate] | ≤ 500
O=C(C1CCCCC1)N1C[C@@H]2C[C@@](O)(c3cc(Cl)cc4[nH]ncc34)C[C@@H]2C1 [Example 62, ((3aR,5r,6aS)-5-(6-chloro-1H-indazol-4-yl)-5-hydroxyhexahydrocyclopenta[c]pyrrol-2(1H)-yl)(cyclohexyl)methanone] | ≤ 500
CC(C)C(=O)N1C[C@@H]2C[C@@](O)(c3cc(Cl)cc4[nH]ncc34)C[C@@H]2C1 [Example 65, 1-((3aR,5r,6aS)-5-(6-chloro-1H-indazol-4-yl)-5-hydroxyhexahydrocyclopenta[c]pyrrol-2(1H)-yl)-2-methylpropan-1-one] | ≤ 500
